According to patent US8785457B2 (Cellzome Limited, priority 2009, dated 2014):
Like-named read-outs stand apart in the source and are kept apart here.

Columns and labels:
Salmonella strain TA100 = test system: Salmonella strain TA100
Description: (§1) Certain compounds of the invention were tested in a miniaturized screening version of the Ames test that requires a small amount of compound compared with the regulatory test. The Ames fluctuation assay is performed in 384-well plates using two Salmonella strains, TA98 and TA100. TA98 detects frameshifts and TA100 detects base substitutions leading to missense mutations. Whereas the original Ames test is carried out by plating bacteria onto selective agar plates, the Ames fluctuation assay is carried out in liquid culture using 384-well plates. The bacterial plates are incubated with the test compounds for 96 hours, after which bacterial growth is measured spectrophotometrically using a pH indicator that changes color in response to the acidification of the media due to bacterial growth.
(§2) Metabolic activation is achieved by using rat liver S9 fraction (0.2 mg/ml). To prevent false negatives due to bacteriocidal or bacteriostatic effects, a bacterial cytotoxicity assay is conducted in parallel with the Ames fluctuation assay. Compounds are typically tested in both bacterial strains with and without S9, at four concentrations (5, 10, 50 and 100 μM) with n=48 wells. A bacterial cytotoxicity test is conducted in parallel at 8 concentrations (with 100 μM as the highest concentration) and n=3 wells. Four reference compounds (quercetin, streptozotocin, aminoanthracene and mitomycin C) are included in all experiments.
(§3) The significance of the positive counts between the treatment (in the presence of compound) and the control (in the absence of test compound) are calculated using the one-tailed Fisher's exact test—the significance levels are reported as follows: • Weak positive, if 0.01≦p≦0.05, denoted as “+” • Strong positive, if 0.001≦p≦0.01, denoted as “++” • Very strong positive, if p<0.001, denoted as “+++” • Hyphens (−) indicate negative results

Salmonella strain TA98 = test system: Salmonella strain TA98
Description: as §1, §2, §3

[1] = test system: Salmonella strains, TA98 and TA100; details: with rat liver S9 fraction
Description: The Ames Salmonella/microsome mutagenicity assay (Salmonella test; Ames test) is a standard, short-term bacterial reverse mutation assay specifically designed to detect a wide range of chemical substances that can produce genetic damage leading to gene mutations. The test employs several histidine dependent Salmonella strains each carrying different mutations in various genes of the histidine operon (Mortelmans and Zeiger 2000, Mutation Research 455, 29-60). […]
Certain compounds of the invention were tested in a miniaturized screening version of the Ames test that requires a small amount of compound compared with the regulatory test. […] The bacterial plates are incubated with the test compounds for 96 hours, after which bacterial growth is measured spectrophotometrically using a pH indicator that changes color in response to the acidification of the media due to bacterial growth. […]
as §3

Structure (SMILES)	Ames fluctuation assay TA100 +S9 (Salmonella strain TA100; TA100, +S9, 5 μM)	Ames fluctuation assay TA100 +S9 (Salmonella strain TA100; TA100, +S9, 10 μM)	Ames fluctuation assay TA100 +S9 (Salmonella strain TA100; TA100, +S9, 50 μM)	Ames fluctuation assay TA100 +S9 (Salmonella strain TA100; TA100, +S9, 100 μM)	Ames fluctuation assay TA98 +S9 (Salmonella strain TA98; TA98, +S9, 5 μM)	Ames fluctuation assay TA98 +S9 (Salmonella strain TA98; TA98, +S9, 10 μM)	Ames fluctuation assay TA98 +S9 (Salmonella strain TA98; TA98, +S9, 50 μM)	Ames fluctuation assay TA98 +S9 (Salmonella strain TA98; TA98, +S9, 100 μM)	Ames assay result [1]
CCOC(=O)N1Cc2nc(-c3ccc(N)c(F)c3)nc(N3CCOC[C@@H]3C)c2C1 [Intermediate 19]	−	+++ (Very strong positive, if p<0.001, denoted as “+++”)	+++ (Very strong positive, if p<0.001, denoted as “+++”)	+++ (Very strong positive, if p<0.001, denoted as “+++”)	+++ +++ +++ +++ (Very strong positive, if p<0.001, denoted as “+++”)	+++ +++ +++ +++ (Very strong positive, if p<0.001, denoted as “+++”)	+++ +++ +++ +++ (Very strong positive, if p<0.001, denoted as “+++”)	+++ +++ +++ +++ (Very strong positive, if p<0.001, denoted as “+++”)	
CCOC(=O)N1Cc2nc(-c3ccc(N)cc3)nc(N3CCOC[C@@H]3C)c2C1 [Metabolite Example 137, (S)-ethyl 2-(4-aminophenyl)-4-(3-methylmorpholino)-5H-pyrrolo[3,4-d]pyrimidine-6(7H)-carboxylate]									Ames positive
CCOC(=O)N1Cc2nc(-c3ccc(N)cc3)nc(N3CCOC[C@@H]3C)c2C1 [Example 137]	−	−	++ (Strong positive, if 0.001≦p≦0.01, denoted as “++”)	−	+++ +++ +++ +++ (Very strong positive, if p<0.001, denoted as “+++”)	+++ +++ +++ +++ (Very strong positive, if p<0.001, denoted as “+++”)	+++ +++ +++ +++ (Very strong positive, if p<0.001, denoted as “+++”)	+++ +++ +++ +++ (Very strong positive, if p<0.001, denoted as “+++”)	
